Experiments:
HCT116 p53–/– = test: MTS cytotoxicity assay, 72 h, HCT116 p53–/–; type: cell-based; conditions: Homo sapiens, HCT-116, 72 h
Experimental: (§1) Based on the preliminary results and tests of a larger library of known triterpenoids, a small set of 2-substituted lupane and 18α-oleanane derivatives was designed and synthesized. As the first step, the cytotoxic activity of the synthesized derivatives was assessed using an MTS assay following 72 h of treatment (Table 1). Selected cell lines A549 (lung adenocarcinoma) and DU-145 (prostate cancer) are both dependent on Hh signaling. In addition, K562 (chronic myelogenous leukemia) was included as a cell line sensitive to Hh inhibitors[32] and a type of hematological malignancy with active Hh signaling.[33] MRC-5 lung fibroblasts and BJ human skin fibroblasts cell lines were used to evaluate the toxicity against nontumor cells. Compounds were also tested using the standard panel of other cancer cell lines, as described in our earlier work (Table 1).[27]
(§2) The human prostate tumor-derived cell line DU145 was obtained from ATCC (American Type Culture Collection) and cultured in RPMI 1640 (Roswell Park Memorial Institute) medium supplemented with 10% (v/v) fetal bovine serum (FBS). Human prostate tumor-derived LNCaP cells were obtained from ATCC and cultured in RPMI 1640 medium supplemented with 10% FBS. The human nonsmall cell lung carcinoma (NSCLC)-derived cell line HOP-62 was obtained from the DSMZ (German Collection of Microorganisms and Cell Cultures) and cultured in RPMI 1640 medium supplemented with 10% FBS. The human nonsmall cell lung carcinoma-derived cell line NCI-H322 was obtained from ECACC (European Collection of Authenticated Cell Cultures) and cultured in RPMI 1640 medium supplemented with 10% FBS. The human nonsmall cell lung carcinoma-derived cell line NCI-H522 was obtained from ATCC and cultured in RPMI 1640 medium supplemented with 10% FBS. The human lung tumor-derived cell line A549 was obtained from ATCC and cultured in Dulbecco’s Modified Eagle’s Medium (DMEM) supplemented with 10% FBS. The human medulloblastoma-derived cell line DAOY was obtained from ATCC and cultured in Eagle’s Minimum Essential Medium (EMEM) supplemented with 10% FBS. The human glioblastoma-derived cell line T98G was obtained from ATCC and cultured in EMEM medium supplemented with 10% FBS, 1 mmol/L sodium pyruvate, and 1 mmol/L nonessential amino acid mixture. All the above-mentioned cell lines were cultured at 37 °C in an atmosphere of 5% CO2 with 95% humidity. The cytotoxicity MTS assays were performed using MTS (3-(4,5-dimethylthiazol-2-yl)-5-(3-carboxymethoxyphenyl)-2-(4-sulfophenyl)-2H-tetrazolium) tetrazolium salt. Briefly, cells were seeded in a 384-well transparent plate in a volume of 25 μL and a concentration of 15,000 cells/mL (DU145, LNCaP, HOP-62, A549, DAOY, T98G) or 30,000 cells/mL (NCI-H322, NCI-H522). The next day, cells were exposed to compounds in a concentration range of 50–0.0975 μmol/L (dilution factor 2) and cultured in the presence of the compounds for 72 h. After 72 h, 5 μL of MTS/phenazine methosulfate solution was pipetted into each well and incubation continued for 1–4 h. Finally, the absorbance at 490 nm was measured using an EnVision multifunctional modular reader (PerkinElmer). The IC50 value was determined using Dotmatics software.

HCT 116 = test: MTS cytotoxicity assay, 72 h, HCT 116; type: cell-based; conditions: Homo sapiens, HCT-116, 72 h
Experimental: as §1, §2

[1] = test system: K562 (chronic myelogenous leukemia); test: MTS cytotoxicity assay, 72 h, K562; type: cell-based; conditions: Homo sapiens
Experimental: as §1, §2

K562-TAX = test: MTS cytotoxicity assay, 72 h, K562-TAX; type: cell-based
Experimental: as §1, §2

MRC-5 lung fibroblasts = test: MTS cytotoxicity assay, 72 h, MRC-5 fibroblasts; type: cell-based, human; conditions: Homo sapiens, MRC5, 72 h, normal fibroblasts
Experimental: as §1, §2

[2] = test system: A549 (lung adenocarcinoma); test: MTS cytotoxicity assay, 72 h, A549; type: cell-based; conditions: Homo sapiens, A549, 72 h
Experimental: as §1, §2

U2OS = test: MTS cytotoxicity assay, 72 h, U2OS; type: cell-based; conditions: Homo sapiens
Experimental: as §1, §2

[3] = test system: BJ human skin fibroblasts; test: MTS cytotoxicity assay, 72 h, BJ fibroblasts; type: cell-based; conditions: Homo sapiens, Skin fibroblast, normal fibroblasts
Experimental: as §1, §2

DU-145 (prostate cancer) = test: MTS cytotoxicity assay, 72 h, DU-145; type: cell-based, human
Experimental: as §1, §2

CCRF-CEM = test: MTS cytotoxicity assay, 72 h, CCRF-CEM; type: cell-based; conditions: for IC50: Homo sapiens, CCRF-CEM, 72 h, MTS
Experimental: as §1, §2

CEM-DNR = test: MTS cytotoxicity assay, 72 h, CEM-DNR; type: cell-based; conditions: Homo sapiens
Experimental: as §1, with “1).[27] […]” for “1).[27]”

[4] = Homo sapiens, DU-145, 72 h, Table 1
[5] = IC50 of CCRF-CEM line vs average of both fibroblasts (BJ and MRC-5), Table 1
[6] = Homo sapiens, DU-145, 72 h, full Table S1
[7] = CCRF-CEM vs average of BJ and MRC-5, full Table S1

| Compound | IC50 (HCT116 p53–/–; Table 1) [µM] | IC50 (HCT 116; Table 1) [µM] | IC50 ([1]; Table 1) [µM] | IC50 (K562-TAX; Table 1) [µM] | IC50 (K562-TAX; full Table S1) [µM] | IC50 (MRC-5 lung fibroblasts; Table 1) [µM] | IC50 ([2]; Table 1) [µM] | IC50 (U2OS; Table 1) [µM] | IC50 ([3]; Table 1) [µM] | IC50 (HCT116 p53–/–; full Table S1) [µM] | IC50 (HCT 116; full Table S1) [µM] | IC50 ([1]; full Table S1) [µM] | IC50 (MRC-5 lung fibroblasts; full Table S1) [µM] | IC50 ([2]; full Table S1) [µM] | IC50 (U2OS; full Table S1) [µM] | IC50 ([3]; full Table S1) [µM] | IC50 (DU-145 (prostate cancer); [6]) [µM] | SI (selectivity index) (CCRF-CEM; [7]) | IC50 (CCRF-CEM; full Table S1) [µM] | IC50 (CEM-DNR; full Table S1) [µM] | further results |
| --- | --- | --- | --- | --- | --- | --- | --- | --- | --- | --- | --- | --- | --- | --- | --- | --- | --- | --- | --- | --- | --- |
| C=C(C)[C@@H]1CC[C@]2(C(=O)O)CC[C@]3(C)[C@H](CC[C@@H]4[C@@]5(C)CC[C@H](O)C(C)(C)[C@@H]5CC[C@]43C)[C@@H]12 [Betulinic acid 5, betulinic acid, reference compound] | 16 | 16 | 4.3 | 14 | 14.1 | 28 | 9.4 | 21 | 24 |  |  |  |  |  |  |  |  |  |  |  | IC50 (DU-145 (prostate cancer); [4]): 9.6 µM; IC50 (CCRF-CEM; Table 1): 8.1 µM; SI (selectivity index) (CCRF-CEM; [5]): 3.2; IC50 (CEM-DNR; Table 1): 14 µM |
| CC1(C)C(=O)C(c2ccco2)=C[C@@]2(C)C1CC[C@]1(C)C2CCC2C3[C@H]4OC[C@@]3(CCC4(C)C)CC[C@]21C (stereo partly drawn) [Compound 4a, 2-(Furan-2-yl)-19β,28-epoxyolean-1-en-3-one] |  |  |  |  | > 50 |  |  |  |  | > 50 | > 50 | > 50 | > 50 | > 50 | > 50 | > 50 | > 50 | > 1.0 | > 50 | > 50 |  |
| CC1(C)C(=O)C(c2ccoc2)=C[C@@]2(C)C1CC[C@]1(C)C2CCC2C3[C@H]4OC[C@@]3(CCC4(C)C)CC[C@]21C (stereo partly drawn) [Compound 4b, 2-(Furan-3-yl)-19β,28-epoxyolean-1-en-3-one] |  |  |  |  | > 50 |  |  |  |  | > 50 | > 50 | > 50 | > 50 | > 50 | > 50 | > 50 | > 50 | > 1.0 | > 50 | > 50 |  |
| CC1(C)C(=O)C(c2cccs2)=C[C@@]2(C)C1CC[C@]1(C)C2CCC2C3[C@H]4OC[C@@]3(CCC4(C)C)CC[C@]21C (stereo partly drawn) [Compound 4c, 2-(Thiophene-2-yl)-19β,28-epoxyolean-1-en-3-one] |  |  |  |  | > 50 |  |  |  |  | > 50 | > 50 | > 50 | > 50 | > 50 | > 50 | > 50 | > 50 | > 1.0 | > 50 | > 50 |  |
| CC1(C)C(=O)C(c2ccsc2)=C[C@@]2(C)C1CC[C@]1(C)C2CCC2C3[C@H]4OC[C@@]3(CCC4(C)C)CC[C@]21C (stereo partly drawn) [Compound 4d, 2-(Thiophene-3-yl)-19β,28-epoxyolean-1-en-3-one] |  |  |  |  | > 50 |  |  |  |  | > 50 | > 50 | > 50 | > 50 | > 50 | > 50 | > 50 | > 50 | > 1.0 | > 50 | > 50 |  |
| CC1(C)C(=O)C(c2ccc(Cl)s2)=C[C@@]2(C)C1CC[C@]1(C)C2CCC2C3[C@H]4OC[C@@]3(CCC4(C)C)CC[C@]21C (stereo partly drawn) [Compound 4e, 2-(5-Chlorothiophen-2-yl)-19β,28-epoxyolean-1-en-3-one] |  |  |  |  | > 50 |  |  |  |  | > 50 | > 50 | > 50 | > 50 | > 50 | > 50 | > 50 | > 50 | > 1.0 | > 50 | > 50 |  |
| CC1(C)C(=O)C(c2cccnc2)=C[C@@]2(C)C1CC[C@]1(C)C2CCC2C3[C@H]4OC[C@@]3(CCC4(C)C)CC[C@]21C (stereo partly drawn) [Compound 4g, 2-(Pyridin-3-yl)-19β,28-epoxyolean-1-en-3-one] | > 50 | > 50 | > 50 | 19 |  | > 50 | > 50 | > 50 | > 50 |  |  |  |  |  |  |  | 43.3 |  | 25.4 | 15.5 | IC50 (DU-145 (prostate cancer); [4]): 43 µM; IC50 (CCRF-CEM; Table 1): 25 µM; SI (selectivity index) (CCRF-CEM; [5]): >2.0; IC50 (CEM-DNR; Table 1): 16 µM |
| CC1(C)C(=O)C(c2ccncc2)=C[C@@]2(C)C1CC[C@]1(C)C2CCC2C3[C@H]4OC[C@@]3(CCC4(C)C)CC[C@]21C (stereo partly drawn) [Compound 4h, 2-(Pyridine-4-yl)-19β,28-epoxyolean-1-en-3-one] | > 50 | > 50 | > 50 | 18 | 18.1 | > 50 | > 50 | > 50 | > 50 |  |  |  |  |  |  |  | 22.1 |  | 18.7 |  | IC50 (DU-145 (prostate cancer); [4]): 22 µM; IC50 (CCRF-CEM; Table 1): 19 µM; SI (selectivity index) (CCRF-CEM; [5]): >2.7; IC50 (CEM-DNR; Table 1): 19 µM |
| CC1(C)C(=O)C(c2cncnc2)=C[C@@]2(C)C1CC[C@]1(C)C2CCC2C3[C@H]4OC[C@@]3(CCC4(C)C)CC[C@]21C (stereo partly drawn) [Compound 4i, 2-(Pyrimidin-5-yl)-19β,28-epoxyolean-1-en-3-one] | > 50 | > 50 | > 50 | > 50 |  | > 50 | > 50 | > 50 | > 50 |  |  |  |  |  |  |  |  |  |  | 27.4 | IC50 (DU-145 (prostate cancer); [4]): > 50 µM; IC50 (CCRF-CEM; Table 1): > 50 µM; IC50 (CEM-DNR; Table 1): 27 µM |
| CC1(C)C(=O)C(c2ccc3c(c2)OCCO3)=C[C@@]2(C)C1CC[C@]1(C)C2CCC2C3[C@H]4OC[C@@]3(CCC4(C)C)CC[C@]21C (stereo partly drawn) [Compound 4j, 2-(1,4-Benzodioxan-6-yl)-19β,28-epoxyolean-1-en-3-one] |  |  |  |  | > 50 |  |  |  |  | > 50 | > 50 | > 50 | > 50 | > 50 | > 50 | > 50 | > 50 | > 1.0 | > 50 | > 50 |  |
| CC1(C)C(=O)C(c2cc3ccccc3s2)=C[C@@]2(C)C1CC[C@]1(C)C2CCC2C3[C@H]4OC[C@@]3(CCC4(C)C)CC[C@]21C (stereo partly drawn) [Compound 4k, 2-(Benzo[b]thien-2-yl)-19β,28-epoxyolean-1-en-3-one] |  |  |  |  | > 50 |  |  |  |  | > 50 | > 50 | > 50 | > 50 | > 50 | > 50 | > 50 | > 50 | > 1.0 | > 50 | > 50 |  |
| CN(C)c1ccccc1CN1CCCN(Cc2ccccc2N(C)C)C1c1ccncc1 [GANT-61, reference compound] |  |  |  |  |  |  |  |  |  |  |  |  |  |  |  |  |  |  |  |  | IC50 (DU-145 (prostate cancer); Table 1): > 50 µM |

Source: PMC11923649, “Novel C-2 Aromatic Heterocycle-Substituted Triterpenoids Inhibit Hedgehog Signaling in GLI1 Overexpression Cancer Cells” (ACS Omega, 2025)
